The values below come from patent publication US10888576B2, “Composition of HMB and ATP and methods of use” (Metabolic Technologies, Inc., priority 2018, dated 2021).

Data set [1] deals with resistance-trained males. Nature of the data set: Vertical jump peak power on force platform. Conditions: for vertical jump power increase: over the 12-weeks of training; for decrease in vertical jump power during the overreaching cycle: over weeks 9 and 10. Type of data set: in vivo, human. How it is done:
Measurements of PP were also taken during a vertical jump (VJ) test performed on a multi-component AMTI force platform (Advanced Mechanical Technology, Inc., Watertown, Mass.), interfaced with a personal computer at a sampling rate of 1000 Hz (51). Data acquisition software (LabVIEW, version 7.1; National Instruments Corporation, Austin, Tex.) was used to calculate PP. Peak power was calculated as the peak combination of ground reaction force and peak velocity during the accelerated launch on the platform. The ICC of VJ power was 0.97. Prior to the study, participants were randomly assigned to receive either 3 g per day of HMB Free Acid (HMB) (combined with food-grade orange flavors and sweeteners), 400 mg per day of ATP (PEAK ATP®; TSI, Inc.), a combination of both 3 g of HMB and 400 mg per day of ATP, or a placebo (food-grade orange flavors and sweeteners) divided equally into three servings daily with the first serving given 30 minutes prior to exercise and the remaining two servings daily with the mid-day and evening meals. On the non-training days participants were instructed to consume one serving with each of three separate meals. The supplementation was continued daily throughout the training and testing protocols. […] This dosage would be equivalent to a 1 gram Ca-HMB dosage. All participants performed a high volume resistance training protocol during the 12-week study. The phases of the study and measurements taken are shown in FIG. 1, and the exercise protocols for each phase of the study are shown in Tables 1 to 3. The training was divided into 3 phases, with Phase 1 consisting of daily undulating periodization (weeks 1 to 8), Phase 2 consisting of the overreaching cycle (weeks 9 and 10), and Phase 3 consisting of the taper cycle (weeks 11 and 12).

The subject of a further data set is skeletal muscle. Conditions: acute ingestion of 2.4 grams; cited from earlier work.
The test system of data set [2] is resistance-trained males. Nature of the data set: Muscle strength: 1RM of back squat, bench press and deadlift (total strength). Type of data set: in vivo, human. Conditions: for change in total strength during the overreaching cycle: from week 8 to week 10; for total strength gains: over the 12-week study, 1-RM of squat, bench press, deadlift. How it is done: After familiarization with procedures, muscle strength was assessed via 1RM testing of the back squat, bench press, and […]. Each lift was performed as described by the International Powerlifting Federation rules (44). Body composition (lean body mass, fat mass, and total mass) was determined by dual x-ray absorptiometry (DXA; Lunar Prodigy enCORE 2008, Madison, Wis., U.S.A.). Skeletal muscle hypertrophy was determined via the combined changes in ultrasonography-determined muscle thickness of the vastus lateralis (VL) and vastus intermedius (VI) muscles. The intraclass correlation coefficient (ICC) for the test-retest of muscle thickness measurements was r=0.97. Prior to the study, participants were randomly assigned to receive either 3 g per day of HMB Free Acid (HMB) (combined with food-grade orange flavors and sweeteners), 400 mg per day of ATP (PEAK ATP®; TSI, Inc.), a combination of both 3 g of HMB and 400 mg per day of ATP, or a placebo (food-grade orange flavors and sweeteners) divided equally into three servings daily with the first serving given 30 minutes prior to exercise and the remaining two servings daily with the mid-day and evening meals. On the non-training days participants were instructed to consume one serving with each of three separate meals. The supplementation was continued daily throughout the training and testing protocols. […] This dosage would be equivalent to a 1 gram Ca-HMB dosage. All participants performed a high volume resistance training protocol during the 12-week study. The phases of the study and measurements taken are shown in FIG. 1, and the exercise protocols for each phase of the study are shown in Tables 1 to 3. The training was divided into 3 phases, with Phase 1 consisting of daily undulating periodization (weeks 1 to 8), Phase 2 consisting of the overreaching cycle (weeks 9 and 10), and Phase 3 consisting of the taper cycle (weeks 11 and 12).

The conditions of data set [3]: after HMB is fed; cited from earlier work.
The test system of the next data set is cortisol. Nature of the data set: Serum cortisol ELISA. Type of data set: in vivo, human. Conditions: for effect on cortisol levels: during the study, vs placebo; for Cortisol: Mean ± SEM. The procedure: (§1) Prior to the study, participants were randomly assigned to receive either 3 g per day of HMB Free Acid (HMB) (combined with food-grade orange flavors and sweeteners), 400 mg per day of ATP (PEAK ATP®; TSI, Inc.), a combination of both 3 g of HMB and 400 mg per day of ATP, or a placebo (food-grade orange flavors and sweeteners) divided equally into three servings daily with the first serving given 30 minutes prior to exercise and the remaining two servings daily with the mid-day and evening meals. On the non-training days participants were instructed to consume one serving with each of three separate meals. The supplementation was continued daily throughout the training and testing protocols. Each serving was formulated with 1 gram of HMB free acid to account for fill and emptying variation and achieve a minimum effective dosage of 0.800 grams. This dosage would be equivalent to a 1 gram Ca-HMB dosage.
(§2) All blood draws throughout the study were obtained via venipuncture after a 12-hour fast by a trained phlebotomist. Whole blood was collected and transferred into appropriate tubes for obtaining serum and plasma and centrifuged at 1,500 g for 15 min at 4° C. Resulting serum and plasma were then aliquoted and stored at −80° C. until subsequent analyses.
(§3) Samples were thawed one time and analyzed in duplicate for each analyte. All blood draws were scheduled at the same time of day to negate confounding influences of diurnal hormonal variations. Serum total and free testosterone, cortisol, and C-reactive protein (CRP) were assayed via ELISA kits obtained from Diagnostic Systems Laboratories (Webster, Tex.). All hormones were measured in the same assay on the same day to avoid compounded interassay variance. […] Serum creatine kinase (CK) was measured using colorimetric procedures at 340 nm (Diagnostics Chemicals, Oxford, Conn.). Twenty-four hour urine collections were made and 3-methylhistine was determined by previously described methods (Rathmacher et al 1992 and Wilson et al, 2013).

For data set [4] the following is noted: after administration; cited from earlier work.
The subject of a further data set is C-reactive protein (CRP). Nature of the data set: Serum C-reactive protein ELISA. Type of data set: in vivo, human. The following applies: Mean ± SEM. The procedure: as §1, §2, §3

For the compound `CC(C)(O)CC(=O)O` [HMB-FA, β-hydroxy-β-methylbutyric acid], the “vertical jump power increase” value with resistance-trained males [1] stood at 991±51 watts. In the data set with resistance-trained males [1], the “decrease in vertical jump power during the overreaching cycle” value is recorded as 1.4±0.4%. For the same compound, the “change in protein breakdown” value with skeletal muscle is −56%. The “change in skeletal muscle protein synthesis” value in the data set with skeletal muscle is reported as “+70%”. The “change in total strength during the overreaching cycle” value in the data set on resistance-trained males [2] is on record as −0.5±1.2%. For the same compound, the total strength gains in the data set on resistance-trained males [2] amounted to 77.1 ± 5.6 kg. Further, the “loss of HMB to urine” value in data set [3] is reported as 20-50%. Moreover, the “effect on cortisol levels” value in the data set with cortisol is “decreased cortisol levels”. The Cortisol is 21.5 ± 1.4 µg/dL in the data set with cortisol (week 0 (baseline)); 20.3 ± 1.2 µg/dL in the data set with cortisol (week 1); 20.9 ± 1.0 µg/dL in the data set with cortisol (week 4); 18.8 ± 1.5 µg/dL in the data set with cortisol (week 8); 19.6 ± 1.1 µg/dL with cortisol (week 9 (overreaching)); 18.6 ± 1.2 µg/dL in the data set with cortisol (week 10 (overreaching)). Also, in the data set with cortisol (week 12), the Cortisol amounted to 17.4 ± 1.2 µg/dL. Moreover, the “plasma levels of HMB compared with calcium HMB” value in data set [4] was “approximately double the plasma levels of HMB”. In addition, the “time to plasma levels compared with calcium HMB” value in data set [4] is listed as “about one-quarter the time”. The CRP in the data set with C-reactive protein (CRP) (week 0 (baseline)) came to 1.0 ± 0.1 mg/L; in the data set with C-reactive protein (CRP) (week 1) it was 1.3 ± 0.3 mg/L; in the data set on C-reactive protein (CRP) (week 4) it was 1.0 ± 0.1 mg/L; in the data set with C-reactive protein (CRP) (week 8) it was 0.9 ± 0.01 mg/L; in the data set on C-reactive protein (CRP) (week 9 (overreaching)), 1.0 ± 0.1 mg/L; with C-reactive protein (CRP) (week 10 (overreaching)), 1.8 ± 0.8 mg/L. For the same compound, in the data set on C-reactive protein (CRP) (week 12), the CRP was 1.1 ± 0.1 mg/L.
Turning to `Nc1ncnc2c1ncn2[C@@H]1O[C@H](COP(=O)(O)OP(=O)(O)OP(=O)(O)O)[C@@H](O)[C@H]1O` [ATP, Adenosine-5′-triphosphate], the “vertical jump power increase” value in the data set with resistance-trained males [1] is 796±75 watts. Moreover, in the data set with resistance-trained males [1], the “decrease in vertical jump power during the overreaching cycle” value turned out to be 2.2±0.4%. Also, in the data set on resistance-trained males [2], the “change in total strength during the overreaching cycle” value is recorded as −2.±0.5%. The total strength gains in the data set on resistance-trained males [2] amounted to 55.3 ± 6.0 kg. For the same compound, the “effect on cortisol levels” value in the data set with cortisol is recorded as “did not affect cortisol levels”. Besides, the Cortisol with cortisol (week 0 (baseline)) was determined as 20.9 ± 1.2 µg/dL; in the data set with cortisol (week 1) it was 20.5 ± 1.3 µg/dL; with cortisol (week 4) it was 18.4 ± 1.4 µg/dL; with cortisol (week 8) it was 19.0 ± 0.4 µg/dL; in the data set with cortisol (week 9 (overreaching)) it was 21.5 ± 0.4 µg/dL; in the data set on cortisol (week 10 (overreaching)), 22.6 ± 0.2 µg/dL. Also, the Cortisol in the data set on cortisol (week 12) was found to be 19.7 ± 0.6 µg/dL. In addition, the CRP is listed as 1.4 ± 0.4 mg/L in the data set on C-reactive protein (CRP) (week 0 (baseline)); 1.1 ± 0.1 mg/L in the data set on C-reactive protein (CRP) (week 1); 1.2 ± 0.2 mg/L in the data set on C-reactive protein (CRP) (week 4); 1.9 ± 0.6 mg/L in the data set on C-reactive protein (CRP) (week 8); 1.7 ± 0.6 mg/L in the data set on C-reactive protein (CRP) (week 9 (overreaching)); 1.1 ± 0.1 mg/L with C-reactive protein (CRP) (week 10 (overreaching)). For the same compound, the CRP in the data set on C-reactive protein (CRP) (week 12) was 1.2 ± 0.2 mg/L.
